Series [1] is described as follows: Human microsomal stability. The settings on record: for microsomal CLint at 2 µM: human, pH 7.4.
Series [2] in a line: Mouse microsomal stability. The settings on record: pH 7.4.
A further series can be described thus: in vitro. To be noted: human.
The nature of a further series: physchem. The settings on record: kinetic from dmso stock.
Series [3] deals with P-gp (human MDR1). Put plainly: in vitro. The settings on record: dog, MDCK-MDR1, MDCKII-MDR1 Papp A→B.
Series [4] can be described thus: LogD at pH 7.4, shake-flask method. To be noted: for logD: pH 7.4.
In series [5] the test system is EV-D68 (strain US/MO/14-18949). The series is described as follows: EV-D68 antiviral screening assay in RD cells.
For another series, the system named is RD cells. The series is described as follows: RD cell cytotoxicity by MTT assay on uninfected cells. To be noted: geometric mean. (Tetrazolium dyes change colour on reduction, which living cells bring about.)
A short description of series [6]: Kinetic aqueous solubility (KSOL), shake-flask method.
Series [7] concerns MDCKII cells transfected with human MDR1 (P-gp). The settings on record: dog, MDCK-MDR1.
The next series deals with EV-D68. To be noted: in-vitro; read-out: Published EV-D68 EC50; cited from earlier work.
Series [8] deals with human pregnane-X receptor (PXR). Details: method as in PMID 37327878. The settings on record: cited from earlier work.
For series [9], the system named is cytochrome P450 (CYP) enzyme. Details: method as in PMID 37327878. The settings on record: cited from earlier work.
The subject of series [10] is cytochrome P450 (CYP) enzyme. On the set-up: method as in PMID 12802751. The settings on record: after repeated dosing; cited from earlier work.
The test system of series [11] is P-gp (human MDR1). Put plainly: MDCKII-MDR1 A→B permeability. To be noted: dog, MDCK-MDR1.
The test system of series [12] is MDCKII cells transfected with human MDR1 (P-gp). The series is described as follows: MDCKII-MDR1 A→B permeability. To be noted: apical to basolateral.
Setting [13] is: Enterovirus D, EVD68, RD, read-out: EC50 EV-D68, RD cells, strain US/MO/14-18949, geometric mean.
The mark [14] stands for this setting: Enterovirus D, EVD68, RD, read-out: EV-D68 pEC50, pEC50 = −log10(EC50) (converted), RD cells.

≈ marks a conversion by molar mass, not a printed value. Like-named read-outs stand apart in the source and are kept apart here. A value given as a limit tells only on which side of the number the result lay.

`CN(C)C(=O)c1cc(CCCn2ccc3cc(-c4noc(C(F)(F)F)n4)cnc32)on1` [Compound 29]: the figures for the microsomal CLint at 2 µM in series [1] (liver microsomes) and in series [2] (liver microsomes) were 30 µL/min/mg and 133 µL/min/mg, respectively. Also, in the series “in vitro” (RD cells, uninfected), the CC50 is more than 100 µM. Moreover, the solubility (kinetic) (in general, the concentration staying in solution when a stock, usually in DMSO, is diluted into the medium) in the series “physchem” was determined as 28 µM (≈ 12.2 µg/mL). Further, the Papp A→B (usually the apparent permeability from the apical to the basolateral side of a cell layer) with P-gp (human MDR1) [3] came to 15.5 ×10⁻⁶ cm/s. For the same compound, the logD (as a rule, lipophilicity at a set pH, counting ionised and neutral species) in series [4] came out at 3.8. In addition, the EC50 (as a rule, the concentration needed to bring the measured effect to its halfway point) in [5] (setting [13]) was determined as 1.89 µM.

In “in vitro” (RD cells, uninfected), `CN(C)C(=O)c1cc(-c2cccc(Oc3ccc(-c4noc(C(F)(F)F)n4)cc3)c2)on1` [Compound 31] came in with a CC50 of more than 50 µM. In series [5] (setting [13]), the EC50 was 4.87 µM.

Consider `Cc1cc(-c2noc(C(F)(F)F)n2)ccc1OCCNc1cc(C(=O)N(C)C)no1` [Compound 24], for which the CC50 in “in vitro” (RD cells, uninfected) is more than 50 µM. Also, in [5] (setting [13]), the EC50 is more than 30.4 µM.

In the series on RD cells, `CCO/N=C/c1ccc(OCCC2CCN(c3ccc(C)nn3)CC2)cc1` [Compound S-57, BTA-188] had a CC50 of more than 50 µM.

Compound `C#CCc1ccc(OCCCc2cc(C(=O)N(C)C)no2)cc1` [Compound 55] yielded a solubility (kinetic) in the series “physchem” of 198 µM (≈ 61.8 µg/mL). For the same compound, the log distribution coefficient (logD) in [4] came out at 3.1. For the same compound, the EC50 in [5] (setting [14]) is 0.617 µM.

With `Cc1cc(-c2noc(C(F)(F)F)n2)ccc1O[C@@H]1CCN(c2cc(C(=O)N(C)C)no2)C1` [Compound 33], the microsomal CLint (in general, the rate of metabolic loss divided by the concentration) at 2 µM in series [1] (liver microsomes) was 24 µL/min/mg; in series [2] (liver microsomes), 38 µL/min/mg. The compound further registered a CC50 in the series “in vitro” (RD cells, uninfected) of more than 50 µM. The compound also came in with a solubility (kinetic) in “physchem” of less than 10 µM. This compound also returned a Papp A→B in the series on P-gp (human MDR1) [3] of 4 ×10⁻⁶ cm/s. In series [4], the logD turned out to be 4.2. The concentration giving a half-maximal response (EC50) in [5] (setting [13]) worked out at 0.437 µM. For the same compound, in [6], the “Solubility, Kinetic (KSOL)” value was 9 µM (≈ 4.06 µg/mL).

Consider `Cc1cc(-c2noc(C(F)(F)F)n2)ccc1OCCCc1cc(C(=O)N(C)C)no1` [Compound 2, CP-11526092, reference compound], for which the microsomal CLint at 2 µM is 11 µL/min/mg in series [1] (liver microsomes) and 24 µL/min/mg in series [2] (liver microsomes). In addition, the “MDCKII-MDR1 Papp A→B” value in series [7] is on record as 2.26 10^−6 cm s^−1. The EC50 in the series on EV-D68 was 0.042 µM; in series [5] (setting [13]), 0.043 µM; in series [5] (setting [14]), 0.0437 µM. Further, in series [8], the “agonism of human PXR” value is “Neither 1 nor 2 are agonists”. In series [9], the “CYP induction according to in-vitro data” value is “still present”. For the same compound, the CC50 was more than 42 µM in the series “in vitro” (RD cells, uninfected) and more than 50 µM in the series on RD cells (listed as CP-11526092 (2)). Also, in the series “physchem”, the solubility (kinetic) was 9 µM (≈ 3.82 µg/mL). In addition, the Papp A→B in the series with P-gp (human MDR1) [3] came to 2.3 ×10⁻⁶ cm/s. Also, the logD in series [4] was not below 4.5. In addition, in series [5] (cellular pEC50 − AlogP98), the “Lipophilic Cellular Efficiency (LipCellE)” value is on record as more than 3.

For the compound `Cc1cc(-c2noc(C(F)(F)F)n2)ccc1OCCCc1nnc(C(F)(F)F)o1` [Compound 38], the CC50 in the series “in vitro” (RD cells, uninfected) was more than 50 µM. The EC50 in [5] (Enterovirus D, EVD68, RD, read-out: EC50 EV-D68 (Table 4), RD cells, Table 4 head) stood at 39.9 µM.

As to `Cc1cc(CCCOc2c(C)cc(-c3noc(C(F)(F)F)n3)cc2C)on1` [Compound 1, Pleconaril], the microsomal CLint at 2 µM was determined as 12 µL/min/mg in [1] (microsomes) and 22 µL/min/mg in series [2] (liver microsomes). Besides, the “MDCKII-MDR1 Papp A→B” value in series [7] is given as 1.42 10^−6 cm s^−1. Further, the EC50 in the series on EV-D68 is 0.43 µM; in series [5] (setting [13]), less than 0.0295 µM; in [5] (read-out: EC50 EV-D68, RD cells, strain US/MO/14-18949, geometric mean, listed as Pleconaril (1)), less than 0.029 µM. Also, in series [8], the “agonism of human PXR” value was “Neither 1 nor 2 are agonists”. In series [10], the “CYP induction (side effect)” value was “well-known side effect”. The CC50 in “in vitro” (RD cells, uninfected) was more than 50 µM. The compound also displayed a solubility (kinetic) in “physchem” of 18 µM (≈ 6.86 µg/mL). In the series on P-gp (human MDR1) [3], the Papp A→B came out at 1.4 ×10⁻⁶ cm/s. Also, in [4], the logD is 4.2.

Compound `Cc1nc(-c2ccc(OCCCCCN3CCN(c4ccnc(N)c4)C3=O)cc2)no1` [Compound S-59, NLD-22] displayed a CC50 with RD cells of more than 25.6 µM.

For `CCOC(=O)c1ccc(OCCC2CCN(c3ccc(C)nn3)CC2)cc1` [Compound S-58, Pirodavir, reference compound], the microsomal CLint at 2 µM in [1] (microsomes) amounted to 708 µL/min/mg; in [2] (microsomes), 580 µL/min/mg. Further, the CC50 in “in vitro” is more than 50 µM. In the series with P-gp (human MDR1) [11], this compound yielded an apparent permeability from apical to basolateral (Papp A→B) of 9 ×10⁻⁶ cm/s. The EC50 in series [5] (setting [13]) was found to be 0.277 µM.

Regarding `Cc1cc(-c2noc(C(F)(F)F)n2)ccc1O[C@H]1CCN(c2cc(C(=O)N(C)C)no2)C1` [Compound 34], the microsomal CLint at 2 µM in series [1] (liver microsomes) stood at 22 µL/min/mg; in series [2] (liver microsomes), 41 µL/min/mg. The same compound showed a CC50 in “in vitro” (RD cells, uninfected) of more than 50 µM. Further, in the series “physchem”, the solubility (kinetic) was less than 10 µM. The compound also gave a Papp A→B in the series on P-gp (human MDR1) [3] of 2.5 ×10⁻⁶ cm/s. The compound further gave a logD in series [4] of 4.2. The half-maximal effective concentration (EC50) in series [5] (setting [13]) was 0.058 µM; in [5] (setting [14]), 0.0589 µM. The “fold more potent than 33 (EV-D68)” value in series [5] (relative to enantiomer 33) worked out at 10 fold. Besides, the “Solubility, Kinetic (KSOL)” value in series [6] came out at 7 µM (≈ 3.16 µg/mL).

Regarding `Cc1cc(-c2noc(C(F)(F)F)n2)ccc1Oc1cncc(-c2cc(C(=O)N(C)C)no2)c1` [Compound 32], in “in vitro” (RD cells, uninfected), the CC50 was more than 50 µM. Besides, the concentration giving a half-maximal response (EC50) in [5] (setting [13]) came out at 4.35 µM.

As for `CN(C)C(=O)c1cc(CCCn2ccc3cc(-c4noc(C(F)(F)F)n4)ncc32)on1` [Compound 30], the results for the intrinsic metabolic clearance (microsomal CLint) at 2 µM in series [1] (liver microsomes) and in series [2] (liver microsomes) were 20 µL/min/mg and 29 µL/min/mg, respectively. In “in vitro” (RD cells, uninfected), this compound returned a CC50 of more than 100 µM. This compound showed a kinetic solubility in the series “physchem” of 30 µM (≈ 13 µg/mL). The compound further showed a Papp A→B in the series on P-gp (human MDR1) [3] of 3.5 ×10⁻⁶ cm/s. In [4], this compound came in with a logD of 3. The EC50 in series [5] (setting [13]) was determined as 8.43 µM.

In the case of `Nc1nc(-c2ccccc2)nc2[nH]nc(Nc3ccc(C(F)(F)F)cc3)c12` [Compound S-60, OBR-5-340, reference compound], the “Clint HLM” value in [1] (human liver microsomes) is less than 10 µL/min/mg. For the same compound, the “MDCKII-MDR1 Papp A→B” value in series [12] was 1.8 10^−6 cm s^−1. In addition, the “LogD (pH 7.4)” value in [4] (pH 7.4, shake-flask) is reported as not below 4.5. In [5] (read-out: EC50 EV-D68, RD cells, strain US/MO/14-18949, geometric mean), the EC50 was 7.16 µM. Besides, in the series with RD cells, the CC50 was more than 50 µM. Besides, the “Solubility, Kinetic (KSOL)” value in series [6] amounted to 2 µM (≈ 0.741 µg/mL).

For `CN(C)C(=O)c1cc(CCCn2ccc3cc(C#N)ccc32)on1` [Compound 25], the CC50 in “in vitro” (RD cells, uninfected) is more than 50 µM. In series [5] (setting [13]), the EC50 was found to be 2.87 µM.

Values taken from paper doi:10.1101/2025.08.08.668114, “Structure-Activity Relationship Studies Towards Analogues of Pleconaril as Novel Enterovirus-D68 Capsid-Targeting Antivirals” (bioRxiv, 2025).
